Source: patent publication US11958861B2, “Spirocyclic lactams as JAK2 V617F inhibitors” (Incyte Corporation, priority 2021, dated 2024)
Where a name gives a salt, the structure may show the parent alone.

Experiments:
[1] = target: T1, pseudo-kinase domain (JH2, amino-acids 536-812) of human V617F mutant JAK2 (Homo sapiens, UniProt O60674, F794H/V617F/W659A/W777A); test: JAK2 LanthaScreen JH2-V617F Binding Assay; settings: 1 hour at 25° C.
T1 construct: pseudo-kinase domain (JH2, amino-acids 536-812 with 3 surface mutations W659A, W777A, F794H); purchased BPS Bioscience 79498; host or cells: baculovirus expression system
Experimental: Example C. JAK2 LanthaScreen JH2-V617F Binding Assay
(§1) JAK2 JH2-V617F binding assay utilizes pseudo-kinase domain (JH2, amino-acids 536-812 with 3 surface mutations W659A, W777A, F794H) of human V617F mutant JAK2 expressed as C-terminal His-Avi-tagged, biotinylated protein in a baculovirus expression system (BPS Bioscience, Catalog #79498). The assay was conducted in black 384-well polystyrene plates in a final reaction volume of 20 μL. JAK2 JH2-V617F (0.26 nM) was incubated with compounds (100 nL serially diluted in DMSO) in the presence of 50 nM Fluorescent JAK2-JH2 Tracer (MedChem Express Catalog #HY-102055) and 0.25 nM Streptavidin-Tb cryptate (Cisbio Part #610SATLB) in assay buffer (50 mM Tris, pH=7.5, 10 mM MgCl2, 0.01% Brij-35, 0.1% BSA, 1 mM EGTA, 5% Glycerol and 5 mM DTT). Non-specific binding was accessed in the presence of 2 mM ATP. After incubation for 1 hour at 25° C., LanthaScreen signals were read on a PHERAstar FS plate reader (BMG LABTECH). Data was analyzed with IDBS XLfit and GraphPad Prism 5.0 software using a four parameter dose response curve to determine IC50 for each compound.

[2] = target: T2, pseudo-kinase domain (JH2, amino-acids 536-812) of human Wild Type JAK2 (Homo sapiens, UniProt O60674, F794H/W659A/W777A); test: JAK2 LanthaScreen JH2-WT Binding Assay; settings: 1 hour at 25° C.
T2 construct: pseudo-kinase domain (JH2, amino-acids 536-812 with 3 surface mutations W659A, W777A, F794H); purchased BPS Bioscience 79463; host or cells: baculovirus expression system
Experimental: Example B. JAK2 LanthaScreen JH2-WT Binding Assay
as §1, with “JH2-WT” for “JH2-V617F”, “Wild Type” for “V617F mutant”, “#79463).” for “#79498).”, “JH2-WT (0.145” for “JH2-V617F (0.26”

[3] = target: T3, catalytic domain (JH1, amino acids 826-1132) of human JAK2 (Homo sapiens, UniProt O60674); test: JAK2 LanthaScreen JH1 Binding Assay; settings: 2 hours at 25° C.
T3 construct: catalytic domain (JH1, amino acids 826-1132) of human JAK2; purchased Carna Biosciences 08-445-20N; host or cells: baculovirus expression system
Experimental: Example A. JAK2 LanthaScreen JH1 Binding Assay
JAK2 JH1 binding assay utilizes catalytic domain (JH1, amino acids 826-1132) of human JAK2 expressed as N-terminal FLAG-tagged, biotinylated protein in a baculovirus expression system (Carna Biosciences, Product #08-445-20N). The assay was conducted in black 384-well polystyrene plates in a final reaction volume of 20 μL. JAK2 JH1 (1.5 nM) was incubated with compounds (100 nL serially diluted in DMSO) in the presence of 50 nM Fluorescent JAK2-JH1 Tracer and 0.5 nM Streptavidin-Tb cryptate (Cisbio Part #610SATLB) in assay buffer (50 mM Tris, pH=7.5, 10 mM MgCl2, 0.01% Brij-35, 0.1% BSA, 1 mM EGTA, 5% Glycerol and 5 mM DTT). Non-specific binding was accessed in the presence of 2 mM ATP. After incubation for 2 hours at 25° C., LanthaScreen signals were read on a PHERAstar FS plate reader (BMG LABTECH). Data was analyzed with IDBS XLfit and GraphPad Prism 5.0 software using a four parameter dose response curve to determine IC50 for each compound.

[4] = target: T4, catalytic domain (JH1, amino acids 808-1132) of human JAK2 (Homo sapiens, UniProt O60674); test: JAK2 HTRF Enzyme Activity Assay; type: biochemical; settings: ATP 30 μM, read-out: ENZ 30UMATP
T4 construct: catalytic domain (JH1, amino acids 808-1132) of human JAK2; His (N); purchased BPS Bioscience 40450; host or cells: baculovirus expression system
Experimental: Example D. JAK2 HTRF Enzyme Activity Assay
JAK2 enzyme activity assays utilize catalytic domain (JH1, amino acids 808-1132) of human JAK2 expressed as N-terminal His-tagged protein in a baculovirus expression system (BPS Bioscience, Catalog #40450). The assays was conducted in black 384-well polystyrene plates in a final reaction volume of 20 μL. JAK2 (0.015 nM) was incubated with compounds (100 nL serially diluted in DMSO) in the presence of ATP (30 μM or 1 mM) and 500 nM Biotin-labeled […] (SEQ ID NO.: 1) peptide (BioSource International, custom synthesis) in assay buffer (50 mM Tris, pH=7.5, 10 mM MgCl2, 0.01% Brij-35, 0.1% BSA, 1 mM EGTA, 5% Glycerol and 5 mM DTT) for 60 minutes at 25° C. The reactions were stopped by the addition of 10 μL of detection buffer (50 mM Tris, pH 7.8, 0.5 mg/mL BSA, 150 mM NaCl), supplemented with EDTA, LANCE Eu-W1024 anti-phosphotyrosine (PY20), (PerkinElmer, Catalog #AD0067) and Streptavidin SureLight APC (PerkinElmer Catalog #CR130-100), for a final concentration of 15 mM, 1.5 nM and 75 nM, respectively. HTRF signals were read after 30 minutes incubation at room temperature on a PHERAstar FS plate reader (BMG LABTECH). Data was analyzed with IDBS XLfit and GraphPad Prism 5.0 software using a four parameter dose response curve to determine IC50 for each compound.

T1 sequence (O60674 536-812 V617F/W659A/W777A/F794H): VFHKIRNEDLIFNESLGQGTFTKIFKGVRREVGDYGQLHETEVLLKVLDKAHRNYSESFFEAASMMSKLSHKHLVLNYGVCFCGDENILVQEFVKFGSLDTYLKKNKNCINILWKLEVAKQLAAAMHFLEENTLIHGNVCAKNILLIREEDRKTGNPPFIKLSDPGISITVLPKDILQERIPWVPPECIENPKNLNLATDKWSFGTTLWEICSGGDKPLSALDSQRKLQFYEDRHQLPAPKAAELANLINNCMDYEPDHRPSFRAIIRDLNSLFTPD
T2 sequence (O60674 536-812 W659A/W777A/F794H): as the sequence (O60674 536-812 V617F/W659A/W777A/F794H) above, with F82V counted along it
T3 sequence (O60674 826-1132): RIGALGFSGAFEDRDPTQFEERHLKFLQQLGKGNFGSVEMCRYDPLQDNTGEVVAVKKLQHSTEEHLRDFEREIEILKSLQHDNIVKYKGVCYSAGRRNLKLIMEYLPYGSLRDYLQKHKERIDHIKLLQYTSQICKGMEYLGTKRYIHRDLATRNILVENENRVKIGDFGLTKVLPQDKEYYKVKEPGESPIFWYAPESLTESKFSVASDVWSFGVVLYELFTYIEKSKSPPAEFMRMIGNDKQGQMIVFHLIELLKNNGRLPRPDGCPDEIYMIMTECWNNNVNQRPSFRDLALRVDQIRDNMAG
T4 sequence (O60674 808-1132): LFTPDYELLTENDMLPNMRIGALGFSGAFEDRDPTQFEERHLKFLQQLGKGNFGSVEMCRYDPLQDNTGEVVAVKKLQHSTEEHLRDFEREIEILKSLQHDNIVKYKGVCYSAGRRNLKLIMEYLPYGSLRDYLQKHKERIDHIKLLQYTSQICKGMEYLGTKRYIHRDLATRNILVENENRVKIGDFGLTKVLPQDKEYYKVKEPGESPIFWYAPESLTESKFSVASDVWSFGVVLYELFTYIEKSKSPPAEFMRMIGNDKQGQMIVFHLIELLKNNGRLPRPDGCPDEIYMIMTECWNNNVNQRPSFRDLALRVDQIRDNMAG

Molecule	IC50 [1] [µM]	IC50 [2] [µM]	IC50 [3] [µM]	IC50 [4] [µM]
2′-(1-(1-Cyclopropylethyl)-1H-pyrazol-4-yl)-1-(ethylsulfonyl)-6′-(methyl-d3)-r-(1-methyl-1H-indazol-5-yl)-3′,6′-dihydro-7′H-spiro[azepane-4,8′-dipyrrolo[2,3-b:3′,2′-d]pyridin]-7′-one, trifluoroacetate salt [Example 104]	≤ 0.1	≤ 0.1	0.1 to 0.5	0.1 to 0.5
CN1C(=O)C2(CCOC2)c2c1cnc1[nH]c(-c3ccc(CN4CCC(S(C)(=O)=O)CC4)cc3)c(-c3ccccc3)c21 (racemic) [Example 2, 6-Methyl-2-(4-((4-(methylsulfonyl)piperidin-1-yl)methyl)phenyl)-1-phenyl-3,4′,5′,6-tetrahydro-2′H,7H-spiro[dipyrrolo[2,3-b:3′,2′-d]pyridine-8,3′-furan]-7-one trifluoroacetate salt]	≤ 0.1	≤ 0.1	> 2.5	> 2.5
CN1C(=O)C2(CCN(C(=O)CC3CCOCC3)C2)c2c1cnc1[nH]c(-c3ccc(CN4CCC(S(C)(=O)=O)CC4)cc3)c(-c3ccccc3)c21 (racemic) [Example 12, 6-Methyl-2-(4-((4-(methylsulfonyl)piperidin-1-yl)methyl)phenyl)-1-phenyl-1′-(2-(tetrahydro-2H-pyran-4-yl)acetyl)-3,6-dihydro-7H-spiro[dipyrrolo[2,3-b:3′,2′-d]pyridine-8,3′-pyrrolidin]-7-one trifluoroacetate salt]	0.1 to 0.5	0.1 to 0.5	> 2.5	> 2.5
CC(CC#N)n1cc(-c2ccc(-c3c(-c4cnn(C)c4)[nH]c4ncc5c(c34)C3(CCCC3)C(=O)N5C)cc2)cn1 (racemic) [Example 14, 3-(4-(4-(6′-Methyl-2′-(1-methyl-1H-pyrazol-4-yl)-7′-oxo-6′,7′-dihydro-3′H-spiro[cyclopentane-1,8′-dipyrrolo[2,3-b:3′,2′-d]pyridin]-1′-yl)phenyl)-1H-pyrazol-1-yl)butanenitrile trifluoroacetate salt]	0.1 to 0.5	≤ 0.1	> 2.5	> 2.5
CN1C(=O)C2(CCN(C(C(N)=O)c3ccc(F)cc3)CC2)c2c1cnc1[nH]c(-c3cnn(C)c3)c(-c3ccccc3)c21 (racemic) [Example 26, 2-(4-Fluorophenyl)-2-(6-methyl-2-(1-methyl-1H-pyrazol-4-yl)-7-oxo-1-phenyl-6,7-dihydro-3H-spiro[dipyrrolo[2,3-b:3′,2′-d]pyridine-8,4′-piperidin]-1′-yl)acetamide, trifluoroacetate salt]	≤ 0.1	≤ 0.1	0.1 to 0.5	≤ 0.1
CN1C(=O)C2(CCN(C3(CC#N)CCC3)CC2)c2c1cnc1[nH]c(C3=CCC(C(=O)N4CCOCC4)CC3)c(-c3ccc4c(cnn4C)c3)c21 (racemic) [Example 34, 2-(1-(6-Methyl-1-(1-methyl-1H-indazol-5-yl)-2-(4-(morpholine-4-carbonyl)cyclohex-1-en-1-yl)-7-oxo-6,7-dihydro-3H-spiro[dipyrrolo[2,3-b:3′,2′-d]pyridine-8,4′-piperidin]-1′-yl)cyclobutyl)acetonitrile, trifluoroacetate salt]	≤ 0.1	≤ 0.1	0.5 to 1.25	0.5 to 1.25
CN1C(=O)C2(CCN(C3(CC#N)CCC3)CC2)c2c1cnc1[nH]c(-c3cnn(C4CCOC4)c3)c(-c3ccc4c(cnn4C)c3)c21 (racemic) [Example 45, 2-(1-(6-Methyl-1-(1-methyl-1H-indazol-5-yl)-7-oxo-2-(1-(tetrahydrofuran-3-yl)-1H-pyrazol-4-yl)-6,7-dihydro-3H-spiro[dipyrrolo[2,3-b:3′,2′-d]pyridine-8,4′-piperidin]-1′-yl)cyclobutyl)acetonitrile, trifluoroacetate salt]	≤ 0.1	≤ 0.1	0.1 to 0.5	≤ 0.1
CN1C(=O)[C@]2(CC[C@@H](NS(=O)(=O)C3CC3)C2)c2c1cnc1[nH]c(-c3cnn(C)c3)c(-c3ccc4c(cnn4C)c3)c21 (racemic) [Example 55, trifluoroacetate salt]	≤ 0.1	≤ 0.1	1.25 to 2.5	0.5 to 1.25
[2H]C([2H])([2H])n1ncc2cc(-c3c(-c4cnn(C)c4)[nH]c4ncc5c(c34)[C@@]3(CC[C@H](NS(=O)(=O)C4CC4)C3)C(=O)N5C)ccc21 (racemic) [Example 56, trifluoroacetate salt]	≤ 0.1	≤ 0.1	1.25 to 2.5	1.25 to 2.5
CO[C@H]1CC[C@@](CC#N)(N2CCC3(CC2)C(=O)N(C)c2cnc4[nH]c(-c5cnn(C)c5)c(-c5ccc6c(cnn6C)c5)c4c23)CC1 (single isomer, unassigned) [Example 75b, 2-(4-Methoxy-1-(6-methyl-1-(1-methyl-1H-indazol-5-yl)-2-(1-methyl-1H-pyrazol-4-yl)-7-oxo-6,7-dihydro-3H-spiro[dipyrrolo[2,3-b:3′,2′-d]pyridine-8,4′-piperidin]-1′-yl)cyclohexyl)acetonitrile]	≤ 0.1	–	0.5 to 1.25	0.5 to 1.25
